Source: patent US20220146497A1, “Method of Modulating a Fibrotic Condition” (The Procter & Gamble Company, priority 2019, published 2022)

Assays:
[1] = system: immortalized tertBJ fibroblasts cells; test: Cell count by DAPI staining of nuclei (toxicity); format: cell-based, human; conditions: increasing concentrations, FIG. 3B
Method: This increased fluorescence directly correlates to increased collagen synthesis. The results of the positive control (TGFβ), the vehicle control for the TGFβ (Media Control), and the vehicle control for the alpha-ergocryptine (DMSO control) are also illustrated in FIG. 3A. […] Cell count was determined by staining the nuclei with 4′,6-diamidino-2-phenylindole (DAPI), which is a fluorescent stain that binds strongly to adenine-thymine rich regions in DNA. DAPI staining is a well-known technique for determining cell count in fluorescence microscopy.

[2] = system: COL1A1; test: Red-COL1A1 mCherry reporter assay (fluorescence from reporter downstream of the endogenous COL1A1 promoter); format: cell-based, human; conditions: increasing doses, immortalized tertBJ fibroblasts, FIG. 3A
Text: In this example, RNA interference (“RNAi”) screening was used to identify genes that appear to inhibit collagen synthesis. Immortalized human skin fibroblasts (BJhTERT, available from ATCC, Manassas, Va. were modified to place an mCherry reporter gene downstream of the endogenous promoter for COL1A1 using […] (TALENs). COL1A1 is well known for its role in the synthesis of Type I collagen, sometimes referred to as collagen I, which is a fibrillar collagen that accounts for over 90% of the collagen found in the human body. The reporter gene codes for the mCherry RFP, which can be quantitated using known fluorescent protein detection techniques. Transforming growth factor beta (“TGFβ”), a well-known COL1A1 activating cytokine, was used in a fluorescence-activated cell sorting (“FACS”) technique to select for a cell line with low endogenous expression and high levels of inducible expression of the mCherry gene. […]
Automated image acquisition and analysis was used to quantitate the fluorescent protein. […] Images were analyzed using METAXPRESS brand high-content image analysis software from Molecular Devices. The percentage of cells with positive nuclear-localizing mCherry signal above background was determined using the “Translocation-Enhanced” module. […]
This increased fluorescence directly correlates to increased collagen synthesis. […]

CC(C)C[C@H]1C(=O)N2CCC[C@H]2[C@]2(O)O[C@](NC(=O)[C@@H]3C=C4c5cccc6[nH]cc(c56)C[C@H]4N(C)C3)(C(C)C)C(=O)N12 [alpha-ergocryptine]
toxicity as determined by cell counts (DAPI) [1]: not toxic
COL1A1 expression (fluorescence of mCherry reporter) [2]: increased COL1A1 expression
